In brackets after ≈: the same amount, converted by molar mass. Where two headings read alike, the source gives them in different places.
Legend:
[1] = Kinetic turbidimetric solubility assay; format: physicochemical; details: PBS, aqueous buffer, kinetic from dmso stock
Experimental: The desired compounds were sequentially diluted in DMSO in a 96-well plate. 1.5 μL of each well were transferred into another 96-well plate and mixed with 148.5 μL of PBS. Plates were shaken for 5 min at 600 rpm at room temperature, and the absorbance at 620 nm was measured. Absorbance values were normalized by blank subtraction and plotted using GraphPad Prism 8.4.2 (GraphPad Software, San Diego, CA, USA). Solubility (S) was determined based on the First X value of AUC function using a threshold of 0.005.

LasB = LasB (Pseudomonas aeruginosa (strain ATCC 15692 / DSM 22644 / CIP 104116 / JCM 14847 / LMG 12228 / 1C / PRS 101 / PAO1), UniProt P14756); assay: In vitro LasB activity assay (fluorogenic substrate); format: biochemical; details: LasB 0.3 nM, substrate 150 μM, mean ± SD
LasB, sequence (P14756 198-498): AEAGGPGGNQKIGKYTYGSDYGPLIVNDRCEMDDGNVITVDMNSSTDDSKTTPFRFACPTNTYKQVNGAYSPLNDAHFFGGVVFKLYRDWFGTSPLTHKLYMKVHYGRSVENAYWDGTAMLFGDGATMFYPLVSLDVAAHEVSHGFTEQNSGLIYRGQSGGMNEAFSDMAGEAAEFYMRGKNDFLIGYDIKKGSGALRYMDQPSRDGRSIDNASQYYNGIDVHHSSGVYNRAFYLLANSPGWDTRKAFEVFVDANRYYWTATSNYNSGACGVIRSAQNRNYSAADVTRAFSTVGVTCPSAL
Experimental: The LasB activity assay was performed as described previously (Nishino N, Powers J C. Pseudomonas aeruginosa elastase. Development of a new substrate, inhibitors, and an affinity ligand. J Biol Chem. 1980 Apr. 25; 255(8):3482-6) using the fluorogenic substrate 2-Aminobenzoyl-L-Alanyl-Glycyl-L-Leucyl-L-Alanyl-para-Nitro-Benzyl-Amide, purchased from Peptides International (Louisville, KY, USA) and vivitide, LLC (Gardner, MA, USA).
Fluorescence intensity was measured for 60 min at 37° C. in black 384-well microtiter plates (Greiner BioOne, Kremsmünster, Austria) using a CLARIOstar microplate reader (BMG Labtech, Ortenberg, Germany) with an excitation wavelength of […] and an emission wavelength of 415±20 nm. The assay was performed in a final volume of 50 μL of assay buffer (50 mM Tris, pH 7.2, 2.5 mM CaCl2), 0.075% Pluronic F-127, 5% DMSO) containing LasB at a final concentration of […] 0.3 nM and the substrate at 150 μM. Before substrate addition, compounds were preincubated with the enzyme at 37° C. for 15 min. Experiments were performed in duplicates and repeated for at least two times. Blank controls without enzyme were performed. After blank subtraction, the slope of samples containing inhibitors (v) was divided by the slope of a simultaneously started uninhibited enzymatic reaction (v0). IC50 values were determined with nonlinear regression using GraphPad Prism 5 (Graph Pad Software, San Diego, CA, USA) and are given as mean values ±standard deviation (SD). The slope factor was constrained to 1.

in vitro = in vitro ADME; details: mouse, s9
Experimental: For the evaluation of combined phase I and phase II metabolic stability, the compound (1 μM) was incubated with 1 mg/mL pooled liver S9 fraction (Xenotech), 2 mM NADPH, 1 mM UDPGA, 10 mM MgCl2, 5 mM GSH and 0.1 mM PAPS at 37° C. for 0, 5, 15, 30 and 60 min. The metabolic stability of Testosterone (1 μM), verapamil (1 μM) and ketoconazol (1 μM) were determined in parallel to confirm the enzymatic activity of the S9 fraction. The incubation was stopped by precipitation of S9 enzymes with 2 volumes of cold acetonitrile containing internal standard (150 nM Diphenhydramine). Samples were stored on ice for 10 min and precipitated protein was removed by centrifugation (15 min, 4° C., 4,000 rpm). The remaining test compound at different time points was analyzed by LC-MS/MS (TSQ Quantum Access MAX, Thermo Fisher, Dreieich, Germany) and used to determine half-life (t½).

Cytotoxicity assay = format: cell-based; details: human
Experimental: HepG2, HEK293 or A549 cells (2×10^5 cells per well) were seeded in 24-well, flat-bottomed plates. Culturing of cells, incubations, and OD measurements were performed as described previously (Int. J. Cancer 2007, 121, 206-210). Twenty-four hours after seeding the cells, the incubation was started by the addition of test compound in a final DMSO concentration of 1%. The living cell mass was determined after 48 h. At least two independent measurements were performed for each compound.

P. aeruginosa PA-14 = assay: MIC determination assay / antibacterial activity; format: cell-based; details: Pseudomonas aeruginosa, PA14
Experimental: Assays regarding the determination of the minimum inhibitory concentration (MIC) were performed as described previously (Elgaher W A M, Fruth M, Groh M, Haupenthal J, Hartmann R W. Expanding the scaffold for bacterial RNA polymerase inhibitors: design, synthesis and structure-activity relationships of ureido-heterocyclic-carboxylic acids. RSC Adv. 2013 Dec. 3; 4(5):2177-94). The experiments were based on the P. aeruginosa strain PA14. For the case that no MIC value could be determined due to activity reasons, percentage (%) inhibition at 100 μM (or lower, depending on the solubility of the compounds) was calculated. The OD600 was measured 0 and 16 h after inhibitor addition in a CLARIOstar Platereader (BMG Labtech, Ortenberg, Germany).

MMP3 = MMP3 (Homo sapiens (Human), UniProt P08254); assay: Selectivity assay: inhibition of MMPs; format: biochemical
MMP3, sequence (P08254 100-477): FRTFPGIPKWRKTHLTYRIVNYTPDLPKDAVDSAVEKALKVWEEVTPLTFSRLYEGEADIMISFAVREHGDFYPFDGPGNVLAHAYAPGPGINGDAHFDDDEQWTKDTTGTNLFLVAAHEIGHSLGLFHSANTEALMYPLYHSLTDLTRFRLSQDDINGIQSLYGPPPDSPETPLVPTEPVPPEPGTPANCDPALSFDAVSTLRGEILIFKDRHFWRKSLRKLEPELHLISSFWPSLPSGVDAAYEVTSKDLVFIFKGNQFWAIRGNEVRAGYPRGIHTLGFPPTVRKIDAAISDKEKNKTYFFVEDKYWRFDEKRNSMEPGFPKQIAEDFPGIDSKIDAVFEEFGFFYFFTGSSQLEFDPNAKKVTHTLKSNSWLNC
Experimental: (§1) MMPs-1, -2, -3, -7, -8 and -14 along with the SensoLyte 520 Generic MMP Activity Kit*Fluorimetric* were purchased from AnaSpec (Fremont, CA, USA). The assay was performed as described previously (Schönauer E, Kany A M, Haupenthal J, Hüsecken K, Hoppe I J, Voos K, et al. Discovery of a Potent Inhibitor Class with High Selectivity toward Clostridial Collagenases. J Am Chem Soc. 2017 Sep. 13; 139(36):12696-703) using batimastat as a positive control according to the guidelines of the manufacturer.

MMP2 = MMP2 (Homo sapiens (Human), UniProt P08253); assay: Selectivity assay: inhibition of MMPs; format: biochemical
MMP2, sequence (P08253 110-660): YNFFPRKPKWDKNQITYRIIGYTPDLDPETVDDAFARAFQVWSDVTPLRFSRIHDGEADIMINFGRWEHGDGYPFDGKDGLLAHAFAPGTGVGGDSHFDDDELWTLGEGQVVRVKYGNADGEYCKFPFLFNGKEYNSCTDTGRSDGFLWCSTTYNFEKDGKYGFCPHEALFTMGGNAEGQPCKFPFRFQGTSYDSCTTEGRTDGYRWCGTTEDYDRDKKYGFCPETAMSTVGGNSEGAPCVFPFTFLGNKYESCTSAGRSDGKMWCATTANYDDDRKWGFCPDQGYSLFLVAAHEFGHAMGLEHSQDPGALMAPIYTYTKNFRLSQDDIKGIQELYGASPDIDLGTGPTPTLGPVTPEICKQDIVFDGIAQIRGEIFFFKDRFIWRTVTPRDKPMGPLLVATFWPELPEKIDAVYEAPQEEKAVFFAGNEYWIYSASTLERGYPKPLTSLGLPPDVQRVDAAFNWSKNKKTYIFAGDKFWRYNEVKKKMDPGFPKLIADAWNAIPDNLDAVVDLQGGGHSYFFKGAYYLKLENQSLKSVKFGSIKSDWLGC
Experimental: as §1

MMP1 = MMP1 (Homo sapiens (Human), UniProt P03956); assay: Selectivity assay: inhibition of MMPs; format: biochemical
MMP1, sequence (P03956 100-469): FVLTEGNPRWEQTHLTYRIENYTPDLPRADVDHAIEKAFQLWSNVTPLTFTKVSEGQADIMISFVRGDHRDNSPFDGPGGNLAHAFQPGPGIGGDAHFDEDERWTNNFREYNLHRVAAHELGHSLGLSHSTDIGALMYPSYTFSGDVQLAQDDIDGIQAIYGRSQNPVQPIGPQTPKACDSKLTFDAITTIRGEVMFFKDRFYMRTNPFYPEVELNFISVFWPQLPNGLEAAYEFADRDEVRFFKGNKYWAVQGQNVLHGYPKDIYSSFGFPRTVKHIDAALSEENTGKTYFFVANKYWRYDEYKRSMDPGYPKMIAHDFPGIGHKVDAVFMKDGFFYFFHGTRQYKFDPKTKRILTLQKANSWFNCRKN
Experimental: as §1

ADAM-17 (TACE) = ADAM-17 (TACE) (Homo sapiens (Human), UniProt P78536); assay: ADAM-17 (TACE) inhibitor screening assay; format: biochemical; details: read-out: Selectivity IC50 TACE
ADAM-17 (TACE), sequence (P78536 whole entry, looked up): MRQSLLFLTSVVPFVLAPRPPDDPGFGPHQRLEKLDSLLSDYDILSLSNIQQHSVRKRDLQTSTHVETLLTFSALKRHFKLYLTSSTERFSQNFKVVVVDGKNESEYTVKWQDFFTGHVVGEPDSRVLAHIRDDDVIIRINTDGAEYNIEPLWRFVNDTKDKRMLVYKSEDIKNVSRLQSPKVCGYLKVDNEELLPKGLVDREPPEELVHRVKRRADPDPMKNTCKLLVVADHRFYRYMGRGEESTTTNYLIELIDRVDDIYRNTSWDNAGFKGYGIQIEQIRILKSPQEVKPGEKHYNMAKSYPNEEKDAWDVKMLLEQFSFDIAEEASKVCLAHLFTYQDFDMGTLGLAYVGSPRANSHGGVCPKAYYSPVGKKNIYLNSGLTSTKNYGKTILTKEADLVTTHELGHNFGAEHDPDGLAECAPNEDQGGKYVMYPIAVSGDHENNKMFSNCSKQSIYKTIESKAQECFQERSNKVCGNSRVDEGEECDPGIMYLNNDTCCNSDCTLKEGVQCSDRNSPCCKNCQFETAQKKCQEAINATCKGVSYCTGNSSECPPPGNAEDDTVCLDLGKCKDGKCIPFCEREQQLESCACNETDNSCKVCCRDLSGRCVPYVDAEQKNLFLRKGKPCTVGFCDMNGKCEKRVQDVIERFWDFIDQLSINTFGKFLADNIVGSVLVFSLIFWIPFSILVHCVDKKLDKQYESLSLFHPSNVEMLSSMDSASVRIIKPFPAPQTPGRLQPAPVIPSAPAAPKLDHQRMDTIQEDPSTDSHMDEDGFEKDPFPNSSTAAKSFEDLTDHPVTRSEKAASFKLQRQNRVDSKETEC
Experimental: The ADAM-17 (TACE) Inhibitor Screening Assay Kit was purchased from Sigma-Aldrich. The assay was performed according to the guidelines of the manufacturer using ilomastat as a positive control. Fluorescence signals were measured in a CLARIOstar plate reader (BMG Labtech).

HDAC3 = HDAC3 (Homo sapiens (Human), UniProt O15379); assay: HDAC inhibition; format: biochemical; details: read-out: Selectivity IC50 HDAC3
Experimental: (§2) HDAC3 and HDAC8 Inhibitor Screening Assay kits were purchased from Sigma-Aldrich. The assay was performed according to the guidelines of the manufacturer using trichostatin as a positive control. Fluorescence signals were measured in a CLARIOstar plate reader (BMG Labtech).

HDAC8 = HDAC8 (Homo sapiens (Human), UniProt Q9BY41); assay: HDAC inhibition; format: biochemical; details: read-out: Selectivity IC50 HDAC8
HDAC8, sequence (Q9BY41 whole entry): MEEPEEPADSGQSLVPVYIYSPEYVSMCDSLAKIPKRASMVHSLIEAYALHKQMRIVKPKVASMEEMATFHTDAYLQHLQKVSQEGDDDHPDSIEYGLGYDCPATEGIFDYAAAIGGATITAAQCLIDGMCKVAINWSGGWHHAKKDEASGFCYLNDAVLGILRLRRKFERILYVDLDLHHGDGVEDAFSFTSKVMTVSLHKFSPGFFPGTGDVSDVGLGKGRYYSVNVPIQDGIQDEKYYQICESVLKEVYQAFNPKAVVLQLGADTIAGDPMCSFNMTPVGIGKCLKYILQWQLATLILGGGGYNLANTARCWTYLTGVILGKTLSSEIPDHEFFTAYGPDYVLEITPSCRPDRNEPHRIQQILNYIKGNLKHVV
Experimental: as §2

[2] = tested on: P. aeruginosa PAO1 (strain DSM22644); assay: G. mellonella larvae survival after PAO1 infection; format: in vivo; details: for Final survival percentage of larvae: 3 CFU/Larva, 24 h
Experimental: Bacteria were grown overnight, diluted to OD600 of 0.025 in 10 ml medium, and grown for approx. 2 hours at 37° C. inside a shaker incubator until the OD600 of 1.8-2 is reached. The culture was then serially diluted in sterile PBS (pH=7.2). Bacterial densities of 3000, 300, 30, and 3 CFU/Larva were selected for injection into groups of 15 larvae. A total volume of 5 μl was injected into each larva via the hindmost left proleg by using a syringe pump and Sterican® needles (0.30×12 mm, 30G×½). In addition, control group without injection for the quality of the larvae and a PBS control to monitor the effect of the injection were included in the experiment. All test groups and control groups were incubated at 37° C. in the dark and monitored every 2 hours from 17 hours post-infection.
In vivo evaluation of compounds 162 and 169. Bacteria were cultured and prepared according to the previous section. Final concentrations of 50 μM, 25 μM, and 12.5 μM in combination with 3 CFU/Larva were injected into groups of 15 larvae. In addition to no injection and PBS controls, one group was infected with 3 CFU/Larva and considered the negative control. All test groups and control groups were incubated at 37° C. in the dark and monitored every 2 hours from 17 hours post-infection.

With `CC(C)CC(C(=O)NO)C(=O)Nc1ccc(Cn2cc(CN(C)S(=O)(=O)c3ccc(I)cc3)nn2)cc1` (stereo not drawn) [Compound 131, 2-(Hydroxycarbamoyl)-N-[4-[[4-[[(4-iodophenyl)sulfonyl-methyl-amino]methyl]triazol-1-yl]methyl]phenyl]-4-methyl-pentanamide] the solubility at 5 min [1] was < 200 µM, the IC50 (LasB) was 2.3 ± 0.1 nM and the half-life at 1 μM (in vitro) was 37.5 ± 2.5 min.

With `CC(C)CC(C(=O)NO)C(=O)Nc1ccc(Cn2cc(CSc3ccc(Cl)cc3)nn2)cc1` (stereo not drawn) [Compound 136, N-[4-[[4-[(4-Chlorophenyl)sulfanylmethyl]triazol-1-yl]methyl]phenyl]-2-(hydroxycarbamoyl)-4-methyl-pentanamide] the solubility at 5 min [1] was < 200 µM, the IC50 (LasB) was 1.4 ± 0.1 nM and the half-life at 1 μM (in vitro) was 3.3 ± 0.2 min.

For `CC(C)CC(C(=O)NO)C(=O)Nc1ccc(Cn2cc(CNS(=O)(=O)c3ccc(F)cc3)nn2)cc1` (stereo not drawn) [Compound 160, N-[4-[[4-[[(4-Fluorophenyl)sulfonylamino]methyl]triazol-1-yl]methyl]phenyl]-2-(hydroxycarbamoyl)-4-methyl-pentanamide], the solubility at 5 min [1] was > 200 µM, the IC50 (LasB) was 3.8 ± 0.1 nM and the IC50 at 48 h (Cytotoxicity assay; A549 cells) was > 100 µM. For the same compound, the IC50 at 48 h (Cytotoxicity assay; HEK293 cells) was > 100 µM, the IC50 at 48 h (Cytotoxicity assay; HepG2 cells) was > 100 µM and the IC50 (P. aeruginosa PA-14) was > 100 µM. The IC50 (MMP3) was > 100 µM, the IC50 (MMP2) was > 100 µM and the IC50 (MMP1) was > 100 µM. The half-life at 1 μM (in vitro) was 65.5 ± 0.7 min, the IC50 (ADAM-17 (TACE)) was > 100000 nM and the IC50 (HDAC3) was > 100 µM. For the same compound, the IC50 (HDAC8) was > 100 µM.

With `COc1ccc(S(=O)(=O)NCc2cn(Cc3ccc(NC(=O)C(CC(C)C)C(=O)NO)cc3)nn2)cc1` (stereo not drawn) [Compound 162, 2-(Hydroxycarbamoyl)-N-[4-[[4-[[(4-methoxyphenyl)sulfonylamino]methyl]triazol-1-yl]methyl]phenyl]-4-methyl-pentanamide] the IC50 (LasB) was 1.9 ± 0.1 nM, the “Final survival percentage of larvae” value ([2]; 12.5 μM) was 58% and the “Final survival percentage of larvae” value ([2]; 25 μM) was 64%. The “Final survival percentage of larvae” value ([2]; 50 μM) was 84% and the “Improvement in survival of larvae compared to negative control” value ([2]; 50 μM, vs 3 CFU/Larva without treatment) was 40%.

`CC(C)CC(C(=O)NO)C(=O)Nc1ccc(Cn2cc(CNS(=O)(=O)c3ccc(Cl)c(Cl)c3)nn2)cc1` (stereo not drawn) [Compound 165, N-[4-[[4-[[(3,4-Dichlorophenyl)sulfonylamino]methyl]triazol-1-yl]methyl]phenyl]-2-(hydroxycarbamoyl)-4-methyl-pentanamide] gave a solubility at 5 min [1] of 117 µM (≈ 66.6 µg/mL), an IC50 (LasB) of 1.6 ± 0.1 nM and a half-life at 1 μM (in vitro) of 10.7 ± 0.6 min.

For `CC(C)CC(C(=O)NO)C(=O)Nc1ccc(CN=[N+]=[N-])cc1` (stereo not drawn) [Compound Z9, N-[4-(Azidomethyl)phenyl]-2-(hydroxycarbamoyl)-4-methyl-pentanamide], the IC50 (LasB) was 16.9 ± 0.6 nM, the IC50 at 48 h (Cytotoxicity assay; A549 cells) was > 100 µM and the IC50 at 48 h (Cytotoxicity assay; HEK293 cells) was > 100 µM. For the same compound, the IC50 at 48 h (Cytotoxicity assay; HepG2 cells) was > 100 µM, the IC50 (P. aeruginosa PA-14) was > 100 µM and the IC50 (MMP3) was > 100 µM. The IC50 (MMP2) was > 100 µM, the IC50 (MMP1; read-out: Selectivity IC50 MMP1) was > 100 µM and the IC50 (ADAM-17 (TACE)) was 1600 ± 200 nM. The IC50 (HDAC3) was > 100 µM and the IC50 (HDAC8) was > 100 µM.

In the case of `CC(C)CC(C(=O)NO)C(=O)Nc1ccc(Cn2cc(CNS(=O)(=O)CC34CCC(CC3=O)C4(C)C)nn2)cc1` (stereo not drawn) [Hit L2, N-[4-[[4-[[(7,7-Dimethyl-2-oxo-norbornan-1-yl)methylsulfonylamino]methyl]triazol-1-yl]methyl]phenyl]-2-(hydroxycarbamoyl)-4-methyl-pentanamide], the IC50 (LasB) is reported as 5.3 ± 0.1 nM.

`CC(C)CC(C(=O)NO)C(=O)Nc1ccc(Cn2cc(CNS(=O)(=O)c3ccc(-c4ccccc4)cc3)nn2)cc1` (stereo not drawn) [Hit L3, 2-(Hydroxycarbamoyl)-4-methyl-N-[4-[[4-[[(4-phenylphenyl)sulfonylamino]methyl]triazol-1-yl]methyl]phenyl]pentanamide] gave an IC50 (LasB) of 13.9 ± 0.3 nM.

Work on `CC(C)CC(C(=O)NO)C(=O)Nc1ccc(Cn2cc(C3CSCN3C(=O)c3ccc(F)cc3)nn2)cc1` (stereo not drawn) [Hit L4, N-[4-[[4-[3-(4-Fluorobenzoyl)thiazolidin-4-yl]triazol-1-yl]methyl]phenyl]-2-(hydroxycarbamoyl)-4-methyl-pentanamide] yielded an IC50 (LasB) of 6.6 ± 0.2 nM.

In the case of `CC(=O)Nc1ccccc1OCc1cn(Cc2ccc(NC(=O)C(CC(C)C)C(=O)NO)cc2)nn1` (stereo not drawn) [Hit L5, N-[4-[[4-[(2-Acetamidophenoxy)methyl]triazol-1-yl]methyl]phenyl]-2-(hydroxycarbamoyl)-4-methyl-pentanamide], the IC50 (LasB) is reported as 13.8 ± 0.3 nM.

Source: patent US20250170104A1, “INHIBITORS OF PSEUDOMONAS AERUGINOSA VIRULENCE FACTOR Lasß” (priority 2022, published 2025)
